In US10925858B2, “S-nitrosoglutathione (GSNO) and GSNO reductase inhibitors for use in therapy” (MUSC FOUNDATION FOR RESEARCH DEVELOPMENT, priority 2017, dated 2021):

Key:
CD4+ T cells = assay: Ex vivo culture of PLP139-151 immunized T cells from EAE mice, cytokine ELISA; type: in vivo, SJL mice
passive EAE disease = assay: Adoptive transfer model of EAE (passive EAE), clinical disease; type: in vivo, SJL mice
Description: EAE disease was induced in 8- to 10-week-old female SJL mice by immunization with an emulsion (100 μl, subcutaneous) of proteolipid protein peptide (PLP139-151; Peptide International. Louisville, Ky.) and 200 μg of killed Mycobacterium tuberculosis H37Ra (Difco, Detroit, Mich., USA) followed by booster on day 7 as described previously (Nath et al., 2010). The mice additionally received pertussis toxin (Sigma-Aldrich, St. Louis, Mo.; 200 ng/300 μl PBS, intravenous) on day 0 and 3 post-immunization. On the day of immunization, one group of mice received 100 μl phosphate buffered saline (PBS) and the second group of mice received daily GSNO (1.0 mg/kg, 100 μl/PBS) via oral route GSNO was purchased from World Precision Instruments (Sarasota, Fla.) and its concentration was adjusted spectrophotometrically at 334 nm. Individual animals were observed daily for clinical disease severity by an investigator, blinded to experimental treatments, on a 0-5 scale as follows: 0=no abnormality; 1=piloerection, sluggish, 2=limp tail; 2.5=hind limb weakness (legs slip through cage top); 3=hind limb paralysis, 4=hind and forelimb paralysis; and 5=moribund.
At the peak of EAE disease, the mice were sacrificed and CD4+ T cells were purified from draining lymph nodes (DLN) and spleens by CD4+ T cell isolation kit (Miltenyi, Auburn. Calif.). The purified T cells (2.5×10^6 cells/ml) were cultured in 96-well round-bottom microculture plates (Falcon Labware, Oxnard, Calif.) in RPMI-complete media containing RPMI 1640 (Life Technologies, Gaithersburg, Md.), 10% FBS, and 100 μg/ml streptomycin and penicillin (Atlanta Biologicals Norcross, Ga.), 1 mM glutamine, 1 mM nonessential amino acids, and 50 μM 2-mercaptoethanol (Sigma-Aldrich). For skewing of different CD4+ T cell subsets and their expansion, the isolated CD4+ T cells were stimulated with PLP139-151 (5 μg/ml) with IL-2 (10 ng/ml) for TH0, IL-2 (10 ng/ml), rhIL-12p35 (10 ng/ml), and anti-IL-4 (1 μg/ml) for TH1, or recombinant mouse IL-12/23p40 homodimer (10 ng/ml), anti-IFN-γ 1 (μg/ml), anti-IL-4 (1 μg/ml) for TO 17. All cytokines and antibodies were purchased from BD Biosciences (San Diego, Calif.). Following stimulation, the cells were harvested for adoptive transfer of EAE disease and the culture supernatants were collected for analysis of IFN-γ, IL-17, and IL-10 expression by ELISA (Biolegend Cat #430802, 432505, and 431411; San Diego, Calif.).
(20-30×10^6 T cells in 300 μl RPMI media per mouse) were injected to naive SJL female mice (8-10 week old) via intraperitoneal route. The recipient mice were also given two doses of pertussis toxin (200 ng/300 μl of PBS/i.p.) on day 0 and 2 of post immunization. Clinical EAE disease was measured as describe above.

[1] = test system: protein-associated S-nitrosothiols; assay: Assay for protein-associated S-nitrosylation (biotin-switch) in hBMVECs; type: cell-based, human; conditions: various concentrations, incubated 2 hr
Description: (§1) Cell culture: Primary human brain microvascular endothelial cells (hBMVECs) were purchased from Angio-Proteomie (Cat #: cAP-0002, Atlanta, Ga.). The cells were cultured in cell culture flasks or plates precoated with Quick Coating Solution (Angio-Proteomie; Cat #: cAP-01) and maintained in Endothelial Growth Medium (Angio-Proteomie; Cat #: cAP-02) at 37° C. under 5% CO2/95% air. When the cells were almost confluent, the medium was replaced with endothelial basal medium (Angio-Proteomie; Cat #: cAP-03) containing 0.5% fetal bovine serum (FBS; Life Technologies, Grand Island, N.Y.) about 8-12 hours before the experiment. No institutional approval was required for this study. The study was not pre-registered.
Assay for protein-associated S-nitrosylation: Protein S-Nitrosylation was analyzed by using biotin-switch method as described in our previous reports (Kim et al., 2014; Prasad et al., 2007). hBMVECs were lysed in 250 mM HEPES, pH 7.7, 1 mM EDTA, 0.1 mM neocuproine, 1% Nonidet P-40, 150 mM NaCl, 1 mM phenylmethanesulfonylfluoride, 20 mM methyl methanethiosulfonate (MMTS), 80 μM carmustine, protease inhibitor mixture (Sigma-Aldrich), and mixed with an equal volume of 25 mM HEPES, pH 7.7, 0.1 mM EDTA, 10 μM neocuproine, 5% SDS, 20 mM MMTS and incubated at 50° C. for 20 min. […] Following acetone precipitation, biotinylated (S-nitrosylated) proteins were analyzed by Western analysis. […]

hBMVECs = assay: Assay for F-actin stress fiber development in thrombin treated hBMVECs; type: cell-based, human; conditions: thrombin 0.1 unit/ml 30 min; GSNO 100 μM or SIN-1 100 μM pretreated 2 hr
Description: as §1
Assay for F-actin stress fiber development and endothelial cell contraction: hBMVECs were cultured on fibronectin-coated chamber slides (BD Bioscience). Following drug treatments, the cells were fixed with 4% (wt/vol) paraformaldehyde, permeabilized by the addition of 0.25% Triton X-100, and blocked by 2% bovine serum albumin (BSA) in phosphate buffered saline (PBS). […] The density of fluorescence was analyzed by ImageJ (NIH, Bethesda, Md.).

[2] = T cells from GSNO (1.0 mg/kg daily from immunization) treated vs untreated EAE mice, TH0 condition
[3] = T cells from GSNO treated vs untreated EAE mice
[4] = daily GSNO treatment of recipient mice

Structure (SMILES): N[C@@H](CCC(=O)N[C@@H](CSN=O)C(=O)NCC(=O)O)C(=O)O [GSNO, S-nitrosoglutathione]
- IFN-γ production of T cells in response to PLP139-151 stimulation (CD4+ T cells; [2]): comparable levels
- IL-17 production of T cells in response to PLP139-151 stimulation (CD4+ T cells; [2]): significantly lower levels
- GM-CSF production under TH1 and TH17 skewing conditions (CD4+ T cells; [3]): similarly increased levels
- IFN-γ production under TH1 skewing conditions (CD4+ T cells; [3]): comparable amounts
- IL-10 production under TH1 and TH17 skewing conditions (CD4+ T cells; [3]): significantly higher amounts
- IL-17 production under TH17 skewing conditions (CD4+ T cells; [3]): EAE group produced higher levels of IL-17 than T cells isolated from GSNO+ EAE group
- passive EAE disease severity, recipients of T cells from GSNO treated EAE mice treated with GSNO during the disease (passive EAE disease; [4]): further reduced
- passive EAE disease, recipients of T cells from untreated EAE mice treated with GSNO during the disease (passive EAE disease; [4]): reduced the EAE disease
- passive EAE disease after transfer of T cells from GSNO treated EAE mice (passive EAE disease; recipients without GSNO, vs T cells from untreated EAE mice): significantly delayed and milder disease
- passive EAE disease after transfer of TH1 and TH17 skewed T cells from GSNO treated EAE mice (passive EAE disease; vs T cells from untreated EAE mice): significantly milder EAE disease
- RhoA S-nitrosylation [1]: increased
- cellular levels of protein-associated S-nitrosothiols [1]: increased
- thrombin-induced development of F-actin stress fiber formation (hBMVECs): inhibited
